Values quoted from earlier work in publication PMC7992120 (Nature chemical biology, 2018).

How the values were obtained:
[1] = system: human bradykinin 1 receptor (B1R); conditions: for affinity for B1R of peptides lacking N-terminal lysine (in words): no reference at the sentence (Fig. 1)
[2] = system: human bradykinin 2 receptor (B2R); conditions: for affinity for B2R (in words): agonist
[3] = system: B2R, "these residues" replaced by alanine or positively charged amino acids; conditions: replacement by alanine or positively charged amino acids
dog B1R = conditions: D^7.29 replaced by Asn

**Q.** Which “B1R antagonism / affinity (in words)” value ([1]; B1R antagonist) does the source give for KRPPGFSPL [DALK] here?
**A.** high-affinity antagonist for B1R

**Q.** For “bradykinin (RPPGFSPFR; Bradykinin; UniProt P01042 381-389, looked up) [BK]”, which “affinity for B2R, Figure 1 legend (in words)” value [2] is on record?
**A.** high-affinity ligands for B2R

**Q.** What about the “affinity for B2R (in words)” value [2] of the same substance?
**A.** high-affinity agonists

**Q.** And the “affinity for B1R of peptides lacking N-terminal lysine (in words)” value ([1]; human B1R)?
**A.** rather low affinity to the B1R

**Q.** And the “BK binding of mutant (in words)” value [3]?
**A.** substantially impairs BK binding in B2R

**Q.** Which results are given for desArg^9-bradykinin [DABK]?
**A.** selectivity between DAKD and DABK (in words) (dog B1R): no significant selectivity between DAKD and DABK; affinity for B2R of desArg peptides (in words) [2]: only weak binding affinity to the B2R; affinity for B1R, Figure 1 legend (in words) ([1]; human B1R): not DABK, binds with high affinity to B1R; affinity for B1R of peptides lacking N-terminal lysine (in words) ([1]; human B1R): rather low affinity to the B1R

**Q.** For kallidin [KD], which “affinity for B2R, Figure 1 legend (in words)” value [2] is on record?
**A.** high-affinity ligands for B2R

**Q.** What about the “affinity for B2R (in words)” value [2] of the same substance?
**A.** high-affinity agonists
